Converted amounts (≈) assume the structure as drawn. Read-outs that look alike come from different tables or passages of the source. Each block holds one molecule with its values, some of them ahead of it.
Tests used:
Type in all cases: cell-based
[1] = tested on: Staphylococcus aureus 100 (ATCC 29213); experiment: MIC, broth microdilution, SA 100; conditions: for MIC: Staphylococcus aureus
Description: (§1) Antibacterial activity in vitro is investigated by broth microdilution method in Meuller-Hinton broth as recommended by NCCLS. All strains tested are clinical isolates either sensitive or resistant to natural glycopeptides. MIC values were determined using the CLSI-recommended broth microdilution procedure (Clinical and Laboratory Standards Institute, Methods for Dilution Antimicrobial Susceptibility Tests for Bacteria That Grow Aerobically; Approved Standard-Seventh Edition.). Automated liquid handlers (Multidrop 384, Labsystems, Helsinki, Finland; Biomek 2000 and Multimek 96, Beckman Coulter, Fullerton Calif.) were used to conduct serial dilutions and liquid transfers. The MIC value for vancomycin is given for comparison. The abbreviations for organisms tested are as follow: SA 100—Staphylococcus aureus 100 (ATCC 29213); SA 757—Staphylococcus aureus 757 (MRSA); SA 2012—Staphylococcus aureus 2012 (VISA); SE 835—Staphylococcus epidermidis 835; SE 831—Staphylococcus epidermidis 831 (MRSE); EFc 101—Enterococcus faecalis 101 (ATCC 29212); EFc 848—Enterococcus faecalis 848 (VRE, Van A); EFcm 800—Enterococcus faecium 800; EFcm 752—Enterococcus faecium 752 (VRE, Van A); SPNE 1195—Streptococcus pneumoniae 1195 (ATCC 49619); SPY 712—Streptococcus pyogenes 712.

[2] = tested on: Staphylococcus aureus 757 (MRSA); experiment: MIC, broth microdilution, SA 757
Description: as §1

[3] = tested on: Staphylococcus aureus 2012 (VISA); experiment: MIC, broth microdilution, SA 2012
Description: as §1

[4] = tested on: Staphylococcus epidermidis 835; experiment: MIC, broth microdilution, SE 835
Description: as §1

[5] = tested on: Staphylococcus epidermidis 831 (MRSE); experiment: MIC, broth microdilution, SE 831; conditions: for MIC: Staphylococcus epidermidis, read-out: MIC SE 831
Description: as §1

[6] = tested on: Enterococcus faecalis 101 (ATCC 29212); experiment: MIC, broth microdilution, EFc 101; conditions: for MIC: Enterococcus faecalis
Description: as §1

[7] = tested on: Enterococcus faecalis 848 (VRE, Van A); experiment: MIC, broth microdilution, EFc 848; conditions: for MIC: read-out: MIC E FC 848
Description: as §1

Enterococcus faecium 800 = experiment: MIC, broth microdilution, EFcm 800
Description: as §1

[8] = tested on: Enterococcus faecium 752 (VRE, Van A); experiment: MIC, broth microdilution, EFcm 752; conditions: for MIC: read-out: MIC E FCM 752
Description: as §1

[9] = tested on: Streptococcus pneumoniae 1195 (ATCC 49619); experiment: MIC, broth microdilution, SPNE 1195; conditions: for MIC: Streptococcus pneumoniae
Description: as §1

[10] = tested on: Streptococcus pyogenes 712; experiment: MIC, broth microdilution, SPY 712
Description: as §1

[11] = ATCC29213, Table 1, class symbols, read-out: MIC SA 100
[12] = Table 1, class symbols, read-out: MIC SA 757
[13] = Table 1, class symbols, read-out: MIC SA 2012
[14] = Staphylococcus epidermidis, 835, Table 1, class symbols, read-out: MIC SE 835
[15] = ATCC29212, Table 1, class symbols, read-out: MIC E FC 101
[16] = Table 1, VRE, Van A, class symbols
[17] = Enterococcus faecium, 800, Table 1, class symbols, read-out: MIC E FCM 800
[18] = ATCC49619, Table 1, class symbols, read-out: MIC S PNE 1195
[19] = Streptococcus pyogenes, 712, Table 1, class symbols, read-out: MIC S PYO 712
[20] = Table 2, in the presence of 0.002% Polysorbate 80, numeric value, comparison
[21] = Table 2, VRE, Van A, in the presence of 0.002% Polysorbate 80, numeric value, comparison
[22] = Table 2, VRE, Van A, in the presence of 0.002% Polysorbate 80, class symbols

MIC [1, 11]: 0.01 to 0.5 µg/mL (≈ 0.0058 to 0.29 µM) | MIC [2, 12]: 0.01 to 0.5 µg/mL (≈ 0.0058 to 0.29 µM) | MIC [3, 13]: 1 to 2 µg/mL (≈ 0.58 to 1.16 µM) | MIC [4, 14]: 0.01 to 0.5 µg/mL (≈ 0.0058 to 0.29 µM) | MIC ([5]; Table 1, class symbols): 0.01 to 0.5 µg/mL (≈ 0.0058 to 0.29 µM) | MIC [6, 15]: 0.01 to 0.5 µg/mL (≈ 0.0058 to 0.29 µM) | MIC [7, 16]: 1 to 2 µg/mL (≈ 0.58 to 1.16 µM) | MIC (Enterococcus faecium 800; [17]): 0.01 to 0.5 µg/mL (≈ 0.0058 to 0.29 µM) | MIC [8, 16]: 0.01 to 0.5 µg/mL (≈ 0.0058 to 0.29 µM) | MIC [9, 18]: 0.01 to 0.5 µg/mL (≈ 0.0058 to 0.29 µM) | MIC [10, 19]: 0.01 to 0.5 µg/mL (≈ 0.0058 to 0.29 µM)
SMILES: CCCCCCCCC(=O)NC(=O)C[C@@H]1NC(=O)[C@H](NC(=O)[C@@H](CC(C)C)NC)[C@H](O)c2ccc(c(Cl)c2)Oc2cc3cc(c2O[C@@H]2O[C@H](CO)[C@@H](O)[C@H](O)[C@H]2O[C@H]2C[C@](C)(N)[C@H](O)[C@H](C)O2)Oc2ccc(cc2Cl)[C@@H](O)[C@@H]2NC(=O)[C@H](NC(=O)[C@@H]3NC1=O)c1ccc(O)c(c1)-c1c(O)cc(O)cc1[C@@H](C(=O)NC1C3CC4CC(C3)CC1C4)NC2=O (stereo partly shown) [Compound 42]

MIC [1, 11]: 0.01 to 0.5 µg/mL (≈ 0.00605 to 0.303 µM) | MIC [2, 12]: 0.01 to 0.5 µg/mL (≈ 0.00605 to 0.303 µM) | MIC [3, 13]: 2 to 4 µg/mL (≈ 1.21 to 2.42 µM) | MIC [4, 14]: 0.01 to 0.5 µg/mL (≈ 0.00605 to 0.303 µM) | MIC ([5]; Table 1, class symbols): 0.01 to 0.5 µg/mL (≈ 0.00605 to 0.303 µM) | MIC [6, 15]: 0.01 to 0.5 µg/mL (≈ 0.00605 to 0.303 µM) | MIC [7, 16]: 2 to 4 µg/mL (≈ 1.21 to 2.42 µM) | MIC (Enterococcus faecium 800; [17]): 0.01 to 0.5 µg/mL (≈ 0.00605 to 0.303 µM) | MIC [8, 16]: 1 to 2 µg/mL (≈ 0.605 to 1.21 µM) | MIC [9, 18]: 0.01 to 0.5 µg/mL (≈ 0.00605 to 0.303 µM) | MIC [10, 19]: 0.01 to 0.5 µg/mL (≈ 0.00605 to 0.303 µM)
SMILES: CCCCOc1ccc(S(=O)(=O)NC(=O)C[C@@H]2NC(=O)[C@H](NC(=O)[C@@H](CC(C)C)NC)[C@H](O)c3ccc(c(Cl)c3)Oc3cc4cc(c3O[C@@H]3O[C@H](CO)[C@@H](O)[C@H](O)[C@H]3O)Oc3ccc(cc3Cl)[C@@H](O)[C@@H]3NC(=O)[C@H](NC(=O)[C@@H]4NC2=O)c2ccc(O)c(c2)-c2c(O)cc(O)cc2[C@@H](C(=O)NC2C4CC5CC(C4)CC2C5)NC3=O)cc1 (stereo partly shown) [Compound 117]

SMILES: CN[C@H](CC(C)C)C(=O)N[C@H]1C(=O)N[C@@H](CC(N)=O)C(=O)N[C@H]2C(=O)N[C@H]3C(=O)N[C@H](C(=O)N[C@H](C(=O)O)c4cc(O)cc(O)c4-c4cc3ccc4O)[C@H](O)c3ccc(c(Cl)c3)Oc3cc2cc(c3O[C@@H]2O[C@H](CO)[C@@H](O)[C@H](O)[C@H]2O[C@H]2C[C@](C)(N)[C@H](O)[C@H](C)O2)Oc2ccc(cc2Cl)[C@H]1O [Vancomycin, vancomycin, reference compound]
MIC ([1]; ATCC29213, read-out: MIC SA 100): 1 µg/mL (≈ 0.69 µM) | MIC SA 100 [1, 20]: 1 µg/mL | MIC ([2]; read-out: MIC SA 757, Table 1, numeric value, comparison): 1 µg/mL (≈ 0.69 µM) | MIC ([2]; read-out: MIC SA 757, Table 2, in the presence of 0.002% Polysorbate 80, numeric value, comparison): 2 µg/mL | MIC ([3]; read-out: MIC SA 2012, Table 1, numeric value, comparison): 8 µg/mL (≈ 5.52 µM) | MIC ([3]; read-out: MIC SA 2012, Table 2, in the presence of 0.002% Polysorbate 80, numeric value, comparison): 4 µg/mL | MIC ([4]; Staphylococcus epidermidis, 835, read-out: MIC SE 835, Table 1, numeric value, comparison): 4 µg/mL (≈ 2.76 µM) | MIC ([4]; Staphylococcus epidermidis, 835, read-out: MIC SE 835, Table 2, in the presence of 0.002% Polysorbate 80, numeric value, comparison): 2 µg/mL | MIC [5]: 2 µg/mL (≈ 1.38 µM) | MIC SE 831 [5, 20]: 2 µg/mL | MIC ([6]; ATCC29212, read-out: MIC E FC 101): 4 µg/mL (≈ 2.76 µM) | MIC E FC 101 [6, 20]: 4 µg/mL | MIC E FC 848 [7, 21]: >64 µg/mL | MIC [7]: > 64 µg/mL | MIC (Enterococcus faecium 800; Enterococcus faecium, 800, read-out: MIC E FCM 800): 1 µg/mL (≈ 0.69 µM) | MIC E FCM 800 (Enterococcus faecium 800; [20]): 1 µg/mL | MIC E FCM 752 [8, 21]: >64 µg/mL | MIC [8]: > 64 µg/mL | MIC ([9]; ATCC49619, read-out: MIC S PNE 1195): 0.25 µg/mL (≈ 0.173 µM) | MIC S PNE 1195 [9, 20]: 0.25 µg/mL | MIC ([10]; Streptococcus pyogenes, 712, read-out: MIC S PYO 712): 0.5 µg/mL (≈ 0.345 µM) | MIC S PYO 712 [10, 20]: 0.5 µg/mL

MIC ([1]; ATCC29213, Table 2, in the presence of 0.002% Polysorbate 80, class symbols, read-out: MIC SA 100): 0.01 to 0.5 µg/mL | MIC ([2]; Table 2, in the presence of 0.002% Polysorbate 80, class symbols, read-out: MIC SA 757): 0.01 to 0.5 µg/mL | MIC ([3]; Table 2, in the presence of 0.002% Polysorbate 80, class symbols, read-out: MIC SA 2012): 1 to 2 µg/mL | MIC ([4]; Staphylococcus epidermidis, 835, Table 2, in the presence of 0.002% Polysorbate 80, class symbols, read-out: MIC SE 835): 0.5 to 1 µg/mL | MIC ([5]; Table 2, in the presence of 0.002% Polysorbate 80, class symbols): 0.01 to 0.5 µg/mL | MIC ([6]; ATCC29212, Table 2, in the presence of 0.002% Polysorbate 80, class symbols, read-out: MIC E FC 101): 0.01 to 0.5 µg/mL | MIC [7, 22]: > 16 µg/mL | MIC (Enterococcus faecium 800; Enterococcus faecium, 800, Table 2, in the presence of 0.002% Polysorbate 80, class symbols, read-out: MIC E FCM 800): 0.01 to 0.5 µg/mL | MIC [8, 22]: 2 to 4 µg/mL | MIC ([9]; ATCC49619, Table 2, in the presence of 0.002% Polysorbate 80, class symbols, read-out: MIC S PNE 1195): 0.01 to 0.5 µg/mL | MIC ([10]; Streptococcus pyogenes, 712, Table 2, in the presence of 0.002% Polysorbate 80, class symbols, read-out: MIC S PYO 712): 0.01 to 0.5 µg/mL
SMILES: CN[C@H](CC(C)C)C(=O)N[C@H]1C(=O)N[C@@H](CC(=O)NC(=O)c2ccc(OCCN)c(OCCN)c2)C(=O)N[C@H]2C(=O)N[C@H]3C(=O)N[C@H](C(=O)N[C@H](C(=O)NC4C5CC6CC(C5)CC4C6)c4cc(O)cc(O)c4-c4cc3ccc4O)[C@H](O)c3ccc(c(Cl)c3)Oc3cc2cc(c3O[C@@H]2O[C@H](CO)[C@@H](O)[C@H](O)[C@H]2O[C@H]2C[C@](C)(N)[C@H](O)[C@H](C)O2)Oc2ccc(cc2Cl)[C@H]1O (stereo partly shown) [Compound 165]
